Values of other authors in US4440778A, “Anti-inflammatory analgesic cataplasm and process for producing the same” (Kowa Co., Ltd., priority 1981, dated 1984).

Columns and labels:
[1] = administered orally
[2] = not given; remark: listed apart in the source
[3] = mixed with and suspended in base components, pH 7 or higher

COc1ccc2c(c1)c(CC(=O)O)c(C)n2C(=O)c1ccc(Cl)cc1 [indomethacin, Indomethacin]
adverse effects: central nervous system troubles [1]: central nervous system troubles such as frontal head ache, drowsiness, dizziness and mental disorders
adverse effects: gastroenteric troubles [1]: gastroenteric troubles such as decreased appetite, nausea, vomiting, indigestion, diarrhoea and stomach ache
chemical stability when dissolved in an alkaline solution (alkaline solution): chemically unstable and readily decomposable
solubility in an alkaline solution (alkaline solution): soluble in an alkaline solution
stability in a pH range of 7 or higher [3]: less stable
solubility in water (water): insoluble in water
absorbability through the skin in a pH range of 7 or higher [2, 3]: less absorbable through the skin
percutaneous absorption ([2]; stratum corneum and basal cell layer act as barriers): not subject to percutaneous absorption
